Experimental data as given in patent US20140342931A1, “METHOD FOR PREDICTING RESPONSE TO ENDOCRINE THERAPY” (PAMGENE B.V., priority 2011, published 2014).

Test system: Estrogen Receptor alpha (ERα)
From the text: Under tamoxifen, a known antagonist of the ERα, this phosphorylation affects the conformation of ERα and changes its orientation to the protein SRC-1. In this example we studied the effect of ERαSer305 phosphorylation on the binding of cofactors in transfected cells and in breast tumor specimens. We used the methods and coregulator peptide array as described in WO 2008/028978 containing 154 coregulator peptides (table 1).
ERαY/C-transfected U2OS cells were stimulated with cAMP to induce PKA-mediated ERα phosphorylation. The serine-to-alanine mutant ERαSer305Ala-Y/C was used as a negative control (FIG. 1).
The effect of PKA activation on peptide binding was also studied under tamoxifen conditions.

Row | modulation of ERα binding to coregulators (concentration range of estradiol up to 10^−8 M, control peptide IDNR13 (NCOA1_677_700), wild type and Ser305Ala ERα, cAMP stimulated and control cells) | Molecule | ERα binding to the control peptide (IDNR13) at saturating tamoxifen concentrations (concentration range up to 10^-5 M, ERα-wt and ERαSer305Ala, with or without cAMP (PKA activation))
1 | dose dependent modulation | C[C@]12CC[C@@H]3c4ccc(O)cc4CC[C@H]3[C@@H]1CC[C@@H]2O [estradiol, 17-β-Estradiol] | 
2 |  | 4-hydroxy-Tamoxifen [4OH-tamoxifen] | largely blocked
